From paper PMC12591163, “Controllable Generation of Pathogen‐Specific Antimicrobial Peptides Through Knowledge‐Aware Prompt Diffusion Model” (Advanced Science, 2025) come the findings set out here.

Ends that are not written are not given here. Peptide text beside a SMILES is read from it.

Assay type in all cases: cell-based
One data set concerns E. coli ATCC 25922. The following applies: for MIC against E. coli: ATCC 25922; for antimicrobial activity against E. coli (in words): activity threshold defined as MIC ⩽ 128 µg mL^−1. As for the experimental part: (§1) 2.3Details of the wet-lab evaluation […]
(§2) Pathogens used for minimum inhibitory concentration (MIC) measurements included E. coli ATCC 25922 and S. aureus
(§3) ATCC 25923. Both pathogens were streaked on Luria–Bertani (LB) agar and incubated at 37°C overnight. Individual colonies
(§4) were then selected from the agar plates and transferred to Mueller–Hinton broth (MHB) (Hopebio, China) for further cultivation.
(§5) The cultures were shaken at 160 rpm at 37°C overnight. Once the turbidity of the bacterial suspensions reached between 0.4
(§6) and 0.6 McFarland (MCF), the suspensions were diluted 20-fold with MHB. For the preparation of antimicrobial peptide
(§7) solutions, chemically synthesized peptides were dissolved in either ultrapure water (Biosharp, China) or dimethyl sulfoxide
(§8) (DMSO) (Biosharp, China) to achieve a stock concentration of […]. This stock solution was then further diluted with
(§9) MHB to obtain the concentration gradient of 2 to 512 µg/mL for testing. Subsequently, 200 µL of each peptide dilution was
(§10) pipetted into 96-well plates, followed by the addition of 10 µL of the diluted bacterial suspension to each well. The plates were
(§11) incubated at 37°C for 14-20 hours, and MIC values were determined as the lowest peptide concentration at which no bacterial
(§12) growth was observed. Antimicrobial activity assays were conducted in 96-well plates with […] experimental groups as follows:
(§13) 1) blank control group, containing 200 µL of MHB without bacterial suspension; 2) bacterial control group, with 200 µL of
(§14) MHB and 10 µL of bacterial suspension without peptide; 3) peptide treatment groups, consisting of 200 µL of MHB containing
(§15) varying peptide concentration gradient of 2 to 512 µg/mL along with 10 µL of bacterial suspension. All experiments were
(§16) conducted in triplicate. The positive (proper growth of bacteria) and negative (sterility) controls were included.
(§17) The Cell Counting Kit-8 (CCK-8) assay was employed to evaluate the cytotoxicity of peptides against human lung epithelial
(§18) Beas-2B cells. The cells were seeded at a density of 5× 10^3 cells per 100 µL in 96-well plates and cultured overnight at 37°C
(§19) with 5% CO2. Subsequently, the cells were treated with 100 µL of F-12K medium (Procell, China) containing the peptide
(§20) concentration gradient of 4 to 512 µg/mL and incubated for 24 hours. After incubation, 10 µL of CCK-8 solution (Abbkine,
(§21) China) was added to each well, and the cells were incubated for an additional 4 hours at 37°C. Optical density (OD) at 450 nm
(§22) was measured using an automated microplate reader (BioTek, USA). Each treatment was performed in six duplicate wells.
(§23) Cell viability was calculated as the percentage relative to the control, using the formula: Cell viability (%) = [(OD[peptide] -
(§24) OD[blank]) / (OD[control] - OD[blank])] × 100%.
(§25) 3.1More landscape for peptide datasets
(§26) For the diversity of GO terms, the biological process category encompasses 3,430 terms (accounting for 47% of the total terms)
(§27) and 245,683 peptides (representing 22% of the total peptides); the cellular component category includes 819 terms (11%) and
(§28) 469,675 peptides (43%); the molecular function category covers 3,017 terms (42%) and 389,436 peptides (35%). In the context
(§29) of pathogen diversity (Table 1), the Gram-positive group comprises 24 distinct pathogens (accounting for 43% of the total
(§30) pathogen numbers), and 31,726 peptide terms (representing 49% of the total peptide numbers). The Gram-negative group is
(§31) characterized by 17 pathogens (constituting 30% of the pathogen diversity), and 28,206 peptide terms (making up 44% of the […]

The subject of data set [1] is human lung epithelial Beas-2B cells. The following applies: 24 h.
In the next data set the test system is S. aureus ATCC 25923. As to the method: as §1, §2, §3, §4, §5, §6, §7, §8, §9, §10, §11, §12, §13, §14, §15, §16, §17, §18, §19, §20, §21, §22, §23, §24, §25, §26, §27, §28, §29, §30, §31

Turning to KRTSQQRLQRLITVGRFRLW [Pep7], the “MIC against E. coli” value against E. coli ATCC 25922 was at least 512 µg/mL. As to MARRKPLGKKLRLRAAFK [Pep8], in the data set with E. coli ATCC 25922, the “MIC against E. coli” value was at least 512 µg/mL. As for AKRYYWRWFKHWYRFAHG [Pep10], the “peptide concentration causing 50% cytotoxicity (CC50)” value in data set [1] is at least 256 µg/mL. The “MIC against S. aureus” value against S. aureus ATCC 25923 (ATCC 25923) was 16 µg/mL. Further, in the data set on S. aureus ATCC 25923 (activity threshold defined as MIC ⩽ 128 µg mL^−1), the “antimicrobial activity against S. aureus (in words)” value is reported as “exhibit antimicrobial activity”. Besides, the “antimicrobial activity against E. coli (in words)” value with E. coli ATCC 25922 was “exhibit antimicrobial activity”. For `CC(C)C[C@H](NC(=O)[C@H](Cc1ccc(O)cc1)NC(=O)CNC(=O)[C@H](CO)NC(=O)[C@H](CC(C)C)NC(=O)[C@H](CCCNC(=N)N)NC(=O)[C@H](CCCNC(=N)N)NC(=O)[C@@H](NC(=O)[C@H](Cc1ccccc1)NC(=O)[C@H](CC(C)C)NC(=O)[C@@H](N)Cc1ccccc1)C(C)C)C(=O)N[C@@H](CC(N)=O)C(=O)N[C@@H](Cc1ccc(O)cc1)C(=O)N[C@H](C(=O)N[C@H](C(=O)N[C@@H](CCCNC(=N)N)C(=O)N[C@@H](CS)C(=O)N[C@@H](CCCNC(=N)N)C(=O)N[C@@H](CCCNC(=N)N)C(=O)N[C@@H](Cc1ccccc1)C(=O)N[C@@H](CCCCN)C(=O)N[C@@H](Cc1ccccc1)C(=O)N[C@@H](CS)C(=O)N[C@@H](C)C(=O)O)C(C)C)[C@@H](C)O` [Pep6] (H-FLFVRRLSGYLNYTVRCRRFKFCA-OH; N-terminus and C-terminus assumed), in the data set on E. coli ATCC 25922, the “antimicrobial activity against E. coli (in words)” value is on record as “demonstrated the activity”.
